Data from patent US8420652B2, “Use of aryl piperazine derivatives in manufacturing medicants for treating pain” (NHWA Pharma Corporation, priority 2008, dated 2013).

The compounds below were run on KM female mice (assay: Hot-plate test in mice). Details: Mus musculus, 1 h; intravenous injection; tested 60 minutes after dosing; read-out: ED50, analgesic activity in the hot-plate test.
Assay type: in vivo
From the text: Hot-plate test is one of conventional physiological pain models. Mice lick hind paws, jump up and so on when they are subject to thermal stimulus. Analgesics that take effect on central nervous system can increase the thermo-pain threshold, prolong the latency of protective response.
KM female mice weighting 18-22 g were employed in the test. Primary screening was done before the test to remove the animals whose responses were too slow (>30 s) or too sensitive (<6 s). The mice passing the primary screening were divided into a negative control group, a morphine control group and a group of the compound of the invention. Each group of mice were respectively administered corresponding dose of medicine intragastrically or by intravenous injection, and 60 minutes later, a hot-plate test was done on those mice. The time of first licking hind paws and jumping up was recorded (the data over 60 s is recorded as 60) and compared with the latency of the animals in the control group. The analgesic activity of each dose was calculated and ED50 was calculated from the analgesic activity.

Structure (SMILES) | ED50
O=C(CN1CCN(c2ccc(F)cc2)CC1)c1ccccc1 [Example 8] | 40 mg/kg

Same assay, conditions: Mus musculus, iv, 1 h, read-out: ED50, analgesic activity in the hot-plate test

Structure (SMILES) | ED50
CN1CC[C@]23c4c5ccc(O)c4O[C@H]2[C@@H](O)C=C[C@H]3[C@H]1C5 [Morphine, reference compound] | 1 mg/kg

Same assay, conditions: Mus musculus, po, 1 h, read-out: ED50, analgesic activity in the hot-plate test

Structure (SMILES) | ED50
CN1CC[C@]23c4c5ccc(O)c4O[C@H]2[C@@H](O)C=C[C@H]3[C@H]1C5 [Morphine, reference compound] | 2 mg/kg

Same assay, conditions: Mus musculus, po, 1 h; intragastrically; tested 60 minutes after dosing; read-out: ED50, analgesic activity in the hot-plate test

Structure (SMILES) | ED50
O=C(CN1CCN(c2ccc(F)cc2)CC1)c1ccccc1 [Example 8] | 120 mg/kg

Same assay, conditions: intragastrically; tested 60 minutes after dosing

Structure (SMILES) | ED50, analgesic activity in the hot-plate test
O=C(CN1CCN(c2cccc(C(F)(F)F)c2)CC1)c1ccccc1 [Example 9] | 20 mg/kg
O=C(CN1CCN(c2cccc(Cl)c2)CC1)c1ccccc1 [Example 5] | 55 mg/kg
Cc1cccc(N2CCN(CC(=O)c3ccccc3)CC2)c1C [Example 10] | 30 mg/kg
O=C(CN1CCN(c2cccc(Cl)c2Cl)CC1)c1ccccc1 [Example 7] | 60 mg/kg
COc1ccc2nc(N3CCN(CC(=O)c4ccccc4)CC3)sc2c1 [Example 11] | 150 mg/kg
COc1ccc(N2CCN(CC(=O)c3ccccc3)CC2)cc1 [Example 3] | 50 mg/kg
COc1ccccc1N1CCN(CC(=O)c2ccccc2)CC1 [Example 1] | 25 mg/kg

Same assay, conditions: intravenous injection; tested 60 minutes after dosing

Structure (SMILES) | ED50, analgesic activity in the hot-plate test
O=C(CN1CCN(c2cccc(C(F)(F)F)c2)CC1)c1ccccc1 [Example 9] | 5 mg/kg
O=C(CN1CCN(c2cccc(Cl)c2)CC1)c1ccccc1 [Example 5] | 20 mg/kg
Cc1cccc(N2CCN(CC(=O)c3ccccc3)CC2)c1C [Example 10] | 10 mg/kg
O=C(CN1CCN(c2cccc(Cl)c2Cl)CC1)c1ccccc1 [Example 7] | 20 mg/kg
COc1ccc2nc(N3CCN(CC(=O)c4ccccc4)CC3)sc2c1 [Example 11] | 60 mg/kg
COc1ccc(N2CCN(CC(=O)c3ccccc3)CC2)cc1 [Example 3] | 19 mg/kg
COc1ccccc1N1CCN(CC(=O)c2ccccc2)CC1 [Example 1] | 8 mg/kg

These compounds were tested on Sprague-Dawley (SD) rats (assay: Spared nerve injury (SNI) test). Details: Rattus norvegicus, po; intragastrically on Day 12, 13, 14 after surgery; mechanical allodynia at 60 minutes after administration; read-out: ED50, analgesic activity in the spared nerve injury (SNI) test.
Assay type: in vivo
From the text: Neuropathic pain is also called for short as neuralgia, which is a common chronic pain. It is an abnormal pain condition caused by hurt or disease-induced trauma of peripheral or central nerve, and can not be cured effectively till now. Sciatic nerve branches selective injury model (spared nerve injury, SNI) is a neuralgia model established in 2000 (see Spared nerve injury: an animal model of persistent peripheral neuropathic pain, Pain, 2000 August; 87(2): 149-58). The model can produce […] robust mechanical allodynia, so it can simulate the clinic nerve pathologic pain relatively well.
Adult male Sprague-Dawley (SD) rats weighting 200-250 g (Experimental Animal Center of Xuzhou Medical College) were employed in the test after acclimation by feeding for 1 week. First, Sciatic nerve branches selective injury model (spared nerve injury, SNI) was replicated, The rats of successful modeling were administered intragastrically on Day 12, 13, 14 after surgery. The mechanical allodynia were measured at 60 minutes after administration every day (von Frey Cilia Apparatus, manufactured by Institute of Biology Bioengineering, Chinese Academy of Medical Science).

Structure (SMILES) | ED50
NCC1(CC(=O)O)CCCCC1 [Gabapentin, reference compound] | 50 mg/kg
O=C(CN1CCN(c2ccc(F)cc2)CC1)c1ccccc1 [Example 8] | 150 mg/kg
O=C(CN1CCN(c2ncccn2)CC1)c1ccccc1 [Example 16] | 167 mg/kg

Same assay, conditions: intragastrically on Day 12, 13, 14 after surgery; mechanical allodynia at 60 minutes after administration

Structure (SMILES) | ED50, analgesic activity in the spared nerve injury (SNI) test
O=C(CN1CCN(c2cccc(C(F)(F)F)c2)CC1)c1ccccc1 [Example 9] | 10 mg/kg
Cc1ccc2nc(N3CCN(CC(=O)c4ccccc4)CC3)sc2c1 [Example 12] | 200 mg/kg
O=C(CN1CCN(c2cccc(Cl)c2)CC1)c1ccccc1 [Example 5] | 80 mg/kg
Cc1cccc(N2CCN(CC(=O)c3ccccc3)CC2)c1C [Example 10] | 15 mg/kg
O=C(CN1CCN(c2nc3ccc(Cl)cc3s2)CC1)c1ccccc1 [Example 14] | 152 mg/kg
COc1cccc(N2CCN(CC(=O)c3ccccc3)CC2)c1 [Example 2] | 15 mg/kg
O=C(CN1CCN(c2cccc(Cl)c2Cl)CC1)c1ccccc1 [Example 7] | 60 mg/kg
COc1ccc2nc(N3CCN(CC(=O)c4ccccc4)CC3)sc2c1 [Example 11] | 180 mg/kg
O=C(CN1CCN(c2ccccc2Cl)CC1)c1ccccc1 [Example 4] | 100 mg/kg
COc1ccc(N2CCN(CC(=O)c3ccccc3)CC2)cc1 [Example 3] | 30 mg/kg
COc1ccccc1N1CCN(CC(=O)c2ccccc2)CC1 [Example 1] | 40 mg/kg

These compounds were tested on Kunming mice (assay: Acetic acid-induced writhing test). Details: Mus musculus, po, read-out: ED50, analgesic activity in writhing test.
Assay type: in vivo
Description: Kunming mice (18-22 g, male and female each half) were divided into a negative control group, an Aspirin control group, a morphine control group and a group of the compound of the invention. Each group of mice were respectively administered corresponding medicine (0.2 ml/10 g) intragastrically or subcutaneously, The mice of the negative control group were administered, the same volume vehicle. After 60 minutes (intragastrically) or 30 minutes (subcutaneously), each group of mice were administered 0.6% acetic acid solution (0.4 ml) by intraperitoneal injecting, and then writhing times in 15 minutes were observed and recorded immediately. Writhing inhibition rate in mice was used as the pharmacodynamic index of analgesic activity. Writhing inhibition rate(%)=(writhing times of negative control group−writhing times of medicine group)/Writhing times of negative control group×100%
ED50 values were calculated according to the result.

Structure (SMILES) | ED50
CN1CC[C@]23c4c5ccc(O)c4O[C@H]2[C@@H](O)C=C[C@H]3[C@H]1C5 [Morphine, reference compound] | 4 mg/kg

Same assay, conditions: Mus musculus, po; intragastrically; acetic acid 60 minutes after dosing; writhing times in 15 minutes; read-out: ED50, analgesic activity in writhing test

Structure (SMILES) | ED50
O=C(CN1CCN(c2ccc(F)cc2)CC1)c1ccccc1 [Example 8] | 120 mg/kg
CC(=O)Oc1ccccc1C(=O)O [Aspirin, reference compound] | 100 mg/kg
O=C(CN1CCN(c2ncccn2)CC1)c1ccccc1 [Example 16] | 132 mg/kg

Same assay, conditions: Mus musculus, sc, read-out: ED50, analgesic activity in writhing test

Structure (SMILES) | ED50
CN1CC[C@]23c4c5ccc(O)c4O[C@H]2[C@@H](O)C=C[C@H]3[C@H]1C5 [Morphine, reference compound] | 1 mg/kg

Same assay, conditions: Mus musculus, sc; subcutaneously (S. C); acetic acid 30 minutes after dosing; writhing times in 15 minutes; read-out: ED50, analgesic activity in writhing test

Structure (SMILES) | ED50
O=C(CN1CCN(c2ccc(F)cc2)CC1)c1ccccc1 [Example 8] | 80 mg/kg
CC(=O)Oc1ccccc1C(=O)O [Aspirin, reference compound] | 80 mg/kg
O=C(CN1CCN(c2ncccn2)CC1)c1ccccc1 [Example 16] | 100 mg/kg

Same assay, conditions: intragastrically; acetic acid 60 minutes after dosing; writhing times in 15 minutes

Structure (SMILES) | ED50, analgesic activity in writhing test
O=C(CN1CCN(c2cccc(C(F)(F)F)c2)CC1)c1ccccc1 [Example 9] | 3 mg/kg
Cc1ccc2nc(N3CCN(CC(=O)c4ccccc4)CC3)sc2c1 [Example 12] | 180 mg/kg
O=C(CN1CCN(c2cccc(Cl)c2)CC1)c1ccccc1 [Example 5] | 50 mg/kg
Cc1cccc(N2CCN(CC(=O)c3ccccc3)CC2)c1C [Example 10] | 5 mg/kg
O=C(CN1CCN(c2nc3ccc(Cl)cc3s2)CC1)c1ccccc1 [Example 14] | 152 mg/kg
COc1cccc(N2CCN(CC(=O)c3ccccc3)CC2)c1 [Example 2] | 5 mg/kg
O=C(CN1CCN(c2cccc(Cl)c2Cl)CC1)c1ccccc1 [Example 7] | 60 mg/kg
COc1ccc2nc(N3CCN(CC(=O)c4ccccc4)CC3)sc2c1 [Example 11] | 200 mg/kg
O=C(CN1CCN(c2ccccc2Cl)CC1)c1ccccc1 [Example 4] | 80 mg/kg
COc1ccc(N2CCN(CC(=O)c3ccccc3)CC2)cc1 [Example 3] | 30 mg/kg
COc1ccccc1N1CCN(CC(=O)c2ccccc2)CC1 [Example 1] | 20 mg/kg

Same assay, conditions: subcutaneously (S. C); acetic acid 30 minutes after dosing; writhing times in 15 minutes

Structure (SMILES) | ED50, analgesic activity in writhing test
O=C(CN1CCN(c2cccc(C(F)(F)F)c2)CC1)c1ccccc1 [Example 9] | 2 mg/kg
Cc1ccc2nc(N3CCN(CC(=O)c4ccccc4)CC3)sc2c1 [Example 12] | 100 mg/kg
O=C(CN1CCN(c2cccc(Cl)c2)CC1)c1ccccc1 [Example 5] | 18 mg/kg
Cc1cccc(N2CCN(CC(=O)c3ccccc3)CC2)c1C [Example 10] | 10 mg/kg
O=C(CN1CCN(c2nc3ccc(Cl)cc3s2)CC1)c1ccccc1 [Example 14] | 78 mg/kg
COc1cccc(N2CCN(CC(=O)c3ccccc3)CC2)c1 [Example 2] | 2 mg/kg
O=C(CN1CCN(c2cccc(Cl)c2Cl)CC1)c1ccccc1 [Example 7] | 20 mg/kg
COc1ccc2nc(N3CCN(CC(=O)c4ccccc4)CC3)sc2c1 [Example 11] | 120 mg/kg
O=C(CN1CCN(c2ccccc2Cl)CC1)c1ccccc1 [Example 4] | 36 mg/kg
COc1ccc(N2CCN(CC(=O)c3ccccc3)CC2)cc1 [Example 3] | 20 mg/kg
COc1ccccc1N1CCN(CC(=O)c2ccccc2)CC1 [Example 1] | 15 mg/kg

Each compound was assayed on Sprague-Dawley (SD) rats (assay: Bee venom test). Details: Rattus norvegicus, central, 5 min, read-out: ED50, analgesic activity in the bee venom test.
Assay type: in vivo
Description: Adult male Sprague-Dawley (SD) rats weighting 200-250 g were used in the test after acclimation by feeding for 1 week. First, tubes were placed intrathecally (i.t.) in rats. The rats with good conditions after 3-4 days were selected for the bee venom test. The animals were divided into an intrathecal DMSO group, an intrathecal morphine group and a group of intrathecal compounds of the invention. 5 minutes after administration, each group of rats was […] injected with 50 μl of bee venom at their left hind limbs. Times of feet spontaneous drawing back every 5 minutes in 60 minutes, as well as total times of feet drawing back in an hour were observed and recorded. The response latency to heat stimulus and threshold of mechanical stimulus on both thenars of each group of rats were measured before intrathecal administration and 2 hours after bee venom injection respectively.

Structure (SMILES) | ED50
CN1CC[C@]23c4c5ccc(O)c4O[C@H]2[C@@H](O)C=C[C@H]3[C@H]1C5 [Morphine, reference compound] | 0.005 mg/kg
O=C(CN1CCN(c2ccc(F)cc2)CC1)c1ccccc1 [Example 8] | 0.12 mg/kg

Same assay, conditions: intrathecally; bee venom 5 minutes after administration

Structure (SMILES) | ED50, analgesic activity in the bee venom test
O=C(CN1CCN(c2cccc(C(F)(F)F)c2)CC1)c1ccccc1 [Example 9] | 20 µg/kg
O=C(CN1CCN(c2cccc(Cl)c2)CC1)c1ccccc1 [Example 5] | 60 µg/kg
Cc1cccc(N2CCN(CC(=O)c3ccccc3)CC2)c1C [Example 10] | 30 µg/kg
COc1cccc(N2CCN(CC(=O)c3ccccc3)CC2)c1 [Example 2] | 100 µg/kg
O=C(CN1CCN(c2cccc(Cl)c2Cl)CC1)c1ccccc1 [Example 7] | 80 µg/kg
COc1ccc2nc(N3CCN(CC(=O)c4ccccc4)CC3)sc2c1 [Example 11] | 200 µg/kg
